Results as given in BindingDB's records for doi:10.1016/j.bmcl.2003.10.023 (Boehringer Ingelheim (Canada), 2003).

Test: Inhibitory activity against calf thymus RNA polymerase

SMILES	IC50 [µM]
O=C(O)c1ccc2c(c1)nc(-c1cccs1)n2C1CCCCC1 [1-Cyclohexyl-2-thiophen-2-yl-1H-benzoimidazole-5-carboxylic acid]	> 500
O=C(O)c1ccc2c(c1)nc(-c1ccsc1)n2C1CCCCC1 [1-Cyclohexyl-2-thiophen-3-yl-1H-benzoimidazole-5-carboxylic acid]	> 500
O=C(O)c1ccc2c(c1)nc(-c1ccccc1)n2C1CCCCC1 [1-cyclohexyl-2-phenyl-1H-benzo[d]imidazole-5-carboxylic acid]	> 500

Next, values leading:

IC50 [µM]	SMILES
> 500	O=C(O)c1ccc2c(c1)nc(-c1ncc[nH]1)n2C1CCCCC1 [1-Cyclohexyl-2-(1H-imidazol-2-yl)-1H-benzoimidazole-5-carboxylic acid]
> 500	O=C(O)c1ccc2c(c1)nc(-c1ccc[nH]1)n2C1CCCCC1 [1-Cyclohexyl-2-(1H-pyrrol-2-yl)-1H-benzoimidazole-5-carboxylic acid]
> 500	O=C(O)c1ccc2c(c1)nc(-c1ccco1)n2C1CCCCC1 [1-Cyclohexyl-2-furan-2-yl-1H-benzoimidazole-5-carboxylic acid]
> 500	O=C(O)c1ccc2c(c1)nc(-c1nccs1)n2C1CCCCC1 [1-Cyclohexyl-2-thiazol-2-yl-1H-benzoimidazole-5-carboxylic acid]
